Experimental data from patent US6358960B1, “Amidino derivatives and drugs containing the same as the active ingredient” (Ono Pharmaceutical Co., Ltd., priority 1998, dated 2002).

Target: T1, FVIIa (Homo sapiens, UniProt P08709)
T1 construct: FVIIa (ADI#407, final 10 nM); purchased ADI #407 (FVIIa); #4500 (tissue factor)
Test: FVIIa inhibitory activity (chromogenic substrate S-2288, FVIIa/tissue factor)
Assay type: biochemical
Details: FVIIa 10 nM, tissue factor 10 nM, 2 mM CaCl2, 0.5 mM S-2288, 37° C., pH 7.5
Description: 10 μl of the compound of the present invention in 10% DMSO were added to 65 μl of the buffer solution including FVIIa (ADI#407, final 10 nM), tissue factor (ADI#4500, final 10 nM) and calcium chloride. The mixture was incubated for 10 minutes at 37° C., then 25 μl of 2 mM H-D-Ile-Pro-Arg-pNA (Chromogenix S-2288) was added (total volume 100 μl). The absorbance was measured at 405 nm at regular time intervals, and an initial velocity was calculated. The control value was measured with 10% of DMSO. Inhibitory activity was expressed as a 50% inhibition of control (IC50).
The final concentration of calcium chloride and S-2288 were 2 mM and 0.5 mM respectively. The buffer solution consisted of 50 mM tris-hydrochloric acid buffer (pH 7.5) containing 0.2% PEG6000 and 150 mM sodium chloride.

T1 sequence (P08709 213-466 limits assumed): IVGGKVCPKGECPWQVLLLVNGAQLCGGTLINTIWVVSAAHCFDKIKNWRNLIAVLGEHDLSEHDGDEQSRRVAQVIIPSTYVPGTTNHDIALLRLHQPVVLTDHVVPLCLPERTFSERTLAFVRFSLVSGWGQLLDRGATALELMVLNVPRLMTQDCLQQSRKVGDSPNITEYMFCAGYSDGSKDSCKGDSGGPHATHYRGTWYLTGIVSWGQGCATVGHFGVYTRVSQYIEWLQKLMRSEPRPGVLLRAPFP
T1 sequence (P08709 61-212 limits assumed): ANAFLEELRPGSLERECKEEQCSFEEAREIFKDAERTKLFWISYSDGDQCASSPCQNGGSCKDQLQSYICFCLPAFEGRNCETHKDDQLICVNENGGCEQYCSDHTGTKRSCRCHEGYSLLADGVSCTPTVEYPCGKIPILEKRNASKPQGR
T1 sequence (P13726 33-295 partner): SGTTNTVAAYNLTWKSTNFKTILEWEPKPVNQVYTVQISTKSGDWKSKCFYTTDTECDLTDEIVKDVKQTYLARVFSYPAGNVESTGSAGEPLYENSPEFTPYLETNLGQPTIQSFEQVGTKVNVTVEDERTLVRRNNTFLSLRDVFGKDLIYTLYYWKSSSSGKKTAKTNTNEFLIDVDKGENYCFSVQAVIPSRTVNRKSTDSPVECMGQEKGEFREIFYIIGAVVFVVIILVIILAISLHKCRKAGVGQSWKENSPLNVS

SMILES	IC50 [nM]
CC(C)CNC(=O)c1ccc(-c2cc3ccccc3cc2C(=O)Nc2ccc(C(=N)N)cc2)c(C(=O)O)c1 [Example 19(47), 2-(3-(4-amidinophenylcarbamoyl)naphthalen-2-yl)-5-((2-methylpropyl)carbamoyl)benzoic acid methanesulfonate]	12
COc1ccc(-c2ccc(C(=O)N[C@H](CO)C(C)(C)C)cc2C(=O)O)c(C(=O)Nc2ccc(C(=N)N)cc2)n1 [Example 46, 2-[2-(4-amidinophenylcarbamoyl)-6-methoxy-3-pyridyl]-5-[(1(S)-hydroxymethyl-2,2-dimethylpropyl)carbamoyl]benzoic acid methanesulfonate]	13
